Results taken from patent US9399645B2, “Inhibitors of HIV replication” (Boehringer Ingelheim International GmbH, priority 2011, dated 2016).

What was measured:
HIV-1 = assay: C8166 HIV-1 Luciferase Assay (EC50); format: cell-based; settings: Human immunodeficiency virus 1, C8166, 72 h
Procedure: C8166 HIV-1 Luciferase Assay (Ec50)
The assay used to measure inhibition of HIV replication is as described in WO 2004/050643, pages 73-75, incorporated herein by reference, with the following modifications:
Serial dilutions of HIV-1 inhibitors are prepared in complete media from DMSO stock solutions. Eleven serial dilutions of desired concentration are prepared in a 1 mL deep well titer plate (96 wells). The 12th well contains complete media with no inhibitor and serves as the positive control. All samples contain the same concentration of DMSO (<0.1% DMSO). Inhibitor is added, to triplicate wells, of a 96 well tissue culture treated clear view black microtiter plate (Corning Costar catalogue #3904). The total volume per well is 200 μL of media containing the cells and inhibitor. The last row is reserved for uninfected C8166 LTRIuc cells to serve as the background blank control and the first row is media alone.
Count C8166 LTRIuc cells and place in a minimal volume of complete RPMI 1640 in a tissue culture flask (ex. 30×10^6 cells in 10 mL media/25 cm^2 flask). Infect cells with HIV-1 at a moi of 0.005. Incubate cells for 1.5 h at 37° C. on a rotating rack in a 5% CO2 incubator. Resuspend cells in complete RPMI to give a final concentration of 25,000-cells/well. Add cells to wells of 96 well microtiter plate containing inhibitors. Add 25,000 uninfected C8166-LTRIuc cells/well in 200 μL complete RPMI to last row for background control. Incubate cells at 37° C. in 5% CO2 incubator for 3 days.
50 μL Steady Glo (luciferase substrate T112=5 hours Promega catalogue # E2520) is added to each well of the 96 well plate. The relative light units (RLU) of luciferase are determined using a luminescence plate reader. The calculated % inhibition values are used to determine EC50, slope factor (n) and maximum inhibition (Imax).

[1] = Caco-2 Permeability Assay; format: in vitro ADME; settings: human; for Papp A→B at 10 μM: apparent permeability A to B, compound at 10 μM, apical buffer pH 6.0, basolateral buffer pH 7.4, read-out: Papp (cm/sec, *10^−6)
From the text: Caco-2 Permeability Assay Caco-2 cells are purchased from Cell Culture Services as frozen instant cells at a concentration of 1*10^7 cells/vial. DMEM+glutamax-I culture media is purchased from Gibco (10569). Fetal bovine serum (FBS) is purchased from HyClone (SH30396.03). Pennicilin/Streptomycin antibiotics are purchased from Gibco (15140). MEM non-essential amino acids are purchased from Gibco (11140). Hank's balanced salt solution (HBSS) is purchased from Gibco (14025). Bovine serum albumin (BSA) is purchased from Sigma-Aldrich (A7906). MES low moisture is purchased from Sigma-Aldrich (M3671). HEPES is purchased from Sigma-Aldrich (H3375). Dimethyl Sulfoxide (DMSO) is purchased from EMD (MX1457-6). Complete DMEM media is prepared by adding 1 L of FBS, 100 mL of pen/strep and 110 mL of MEM non essential amino acids to 10 L of DMEM+glutamax-I. […] Caco-2 cells are seeded on HTS transwell 24-well plates purchased from Corning (3397). These polycarbonate membrane plates have a diameter of […] and pore size of 0.4 μm. The Caco-2 cells vial is thawed in a 37° C. water bath until only a small ice pellet is left. The vial is then transferred to the laminar flow hood and its exterior is extensively washed with 70% ethanol. The total content of the vial (2 mL) is transferred into a 50 mL tube containing 38 mL of complete DMEM. […] The seeding is done by the Hamilton star robotic station which is controlled with the Venus program. Each well will receive 600 μL of complete DMEM on its basolateral side and 200 μL of cells on its apical side. Each well receives 50 000 cells. The 24-well plates are then returned to an automated Liconic STX110 incubator set at 37° C., 5% CO2 and 100% humidity. The culture media for the cells is changed every two days except on weekends. These cells are maintained for a period of two weeks prior to the running of the permeability assay. Permeability assays are usually performed between day 15 and 18 after the initial seeding. […] Controls for the assay are mannitol for tight junction determination and Digoxin for efflux transporter (p-glycoprotein) expression. On the day of the assay, each compound is diluted to 10 μM in the buffer (apical for A to B). 6 μl of the 5 mM DMSO stock is added to 3 mL of the buffer in a 24-well 10 mL deep plate covered with a lid. The plate containing all the diluted compounds is spun for 10 min at 3000 rpm in a Rotanta 46 RSC centrifuge from Hettich to remove unsoluble compound. This dilution is used to add at the start of the incubation. Each compound is tested in duplicate. On the day of the assay, the culture media of the 24-well plate is removed and replaced with warm HBSS. The HBSS is then also removed and the Apical and Basolatral buffer are added to their respective side of the transwells. These steps are performed by the Hamilton Star robotic station. The plate is then placed in a 37° C. incubator and is left to equilibrate for 30 min. After 30 min of incubation a background sample (25 μL from each well) is taken from the receiver side (Basolateral for A to B), and replenished with warm buffer. These samples and all others afterwards are kept in a 96-well 1 mL plate. To start the assay, the donor compartment (apical for A to B) is emptied and replaced with new buffer containing the compound at 10 μM. Once the compounds are added, the plate is returned to the 37° C. incubator and the timer is started. In order to determine how much compound is actually added to each well, a 50 μL sample is taken from each compound dilution, this sample is refered to as the load. These steps and the following are performed by the Tecan Freedom EVO robotic station controlled via the Gemini software. For A-to-B Assay: Samples (190 μL) are taken from each basolateral (receiver) chamber at time points 0, 60, 120 and 180 min or at time points 0, 30, 60 and 90 min. From the 190 μL taken, 50 μL is transferred to the receiving plate and 140 μL is discarded.

| Compound | EC50 (HIV-1) | Papp A→B at 10 μM [1] | Papp A→B [1] |
| --- | --- | --- | --- |
| CC[C@H]1C[C@@H](n2c(=O)nc(-c3cnn(C)c3)c3oc4cc(C#N)c(-c5cnn(C)c5)cc4c32)C[C@@H](C)O1 [Compound 1053] | 43 nM | 22.2 ×10⁻⁶ cm/s | – |
| CC[C@H]1C[C@@H](n2c(=O)nc(-c3cccnc3)c3oc4cc(C#N)c(-c5cnn(C)c5)nc4c32)CCO1 [Compound 1019] | 52 nM | 22.5 ×10⁻⁶ cm/s | – |
| CC[C@H]1C[C@@H](n2c(=O)nc(-c3cnn(C)c3)c3oc4ccc(-c5ccn(C)n5)nc4c32)CCO1 [Compound 1003] | 6.4 nM | 22.2 ×10⁻⁶ cm/s | – |
| Cn1cc(-c2cc3c(cc2F)oc2c(-c4ccc(N5CCC5)nc4)nc(=O)n(CCC4CCCO4)c23)cn1 (stereo not drawn) [Compound 1033] | 7.6 nM | 6.9 ×10⁻⁶ cm/s | – |
| CNc1ccc(-c2nc(=O)n(CCC3CCCO3)c3c2oc2ccc(-c4cnn(C(C)C)c4)cc23)cn1 (stereo not drawn) [Compound 1025] | 350 nM | 8.1 ×10⁻⁶ cm/s | – |
| CC[C@H]1C[C@@H](n2c(=O)nc(-c3cnn(C)c3)c3oc4cc(F)c(-c5ccc(CO)nc5)cc4c32)CCO1 [Compound 1045] | 17.3 nM | 9.4 ×10⁻⁶ cm/s | – |
| CC[C@H]1C[C@@H](n2c(=O)nc(-c3cnn(C)c3)c3oc4cc(C)c(-c5cnn(C)c5)cc4c32)CCO1 [Compound 1050] | 7.7 nM | 19.1 ×10⁻⁶ cm/s | – |
| Cn1cc(-c2cc(F)c3oc4c(-c5ccc(N6CCOCC6)nc5)nc(=O)n(CCC5CCCO5)c4c3c2)cn1 (stereo not drawn) [Compound 1031] | 14 nM | 6.4 ×10⁻⁶ cm/s | – |
| CC[C@H]1C[C@@H](n2c(=O)nc(-c3cnn(C)c3)c3oc4ccc(-c5cccnc5)nc4c32)CCO1 [Compound 1006] | 7.4 nM | 18.1 ×10⁻⁶ cm/s | – |
| CC[C@H]1C[C@@H](n2c(=O)nc(-c3ccc(OC)nc3)c3oc4ccc(-c5cn(C)cn5)nc4c32)CCO1 [Compound 1100] | 6.2 nM | 29.3 ×10⁻⁶ cm/s | – |
| CNc1ccc(-c2nc(=O)n(CCC3CCCO3)c3c2oc2c(F)cc(-c4cnco4)cc23)cn1 (stereo not drawn) [Compound 1029] | 19 nM | 16.1 ×10⁻⁶ cm/s | – |
| CNc1ccc(-c2nc(=O)n(CCC3CCCO3)c3c2oc2ncc(-c4cnn(CC5CC5)c4)cc23)cn1 (stereo not drawn) [Compound 1068] | 78 nM | 8.1 ×10⁻⁶ cm/s | – |
| CC[C@H]1C[C@@H](n2c(=O)nc(-c3cnn(C)c3)c3oc4cnc(-c5cn(C)cn5)cc4c32)C[C@@H](C)O1 [Compound 1103] | 56 nM | 18.5 ×10⁻⁶ cm/s | – |
| CC[C@H]1C[C@@H](n2c(=O)nc(-c3ccccn3)c3oc4ccc(-c5cn(C)cn5)nc4c32)CCO1 [Compound 1102] | 57 nM | 24.6 ×10⁻⁶ cm/s | – |
| CC[C@H]1C[C@@H](n2c(=O)nc(-c3cnn(C)c3)c3oc4c(OC)cc(-c5cnn(C)c5)cc4c32)CCO1 [Compound 1057] | 2.2 nM | 14.9 ×10⁻⁶ cm/s | – |
| CC[C@H]1C[C@@H](n2c(=O)nc(-c3cnn(C)c3)c3oc4cnc(-c5cnn(C)c5)cc4c32)CCO1 [Compound 1076] | 5.9 nM | – | 17.9 ×10⁻⁶ cm/s |
| CC[C@H]1C[C@@H](n2c(=O)nc(-c3cnn(C)c3)c3oc4ccc(-c5cn(C)cn5)cc4c32)CCO1 [Compound 1091] | 15.4 nM | 7.9 ×10⁻⁶ cm/s | – |
| COc1cc2oc3c(-c4cnn(C)c4)nc(=O)n(CC[C@@H]4CCCO4)c3c2cc1-c1cnn(C)c1 [Compound 1056] | 8.3 nM | 6.7 ×10⁻⁶ cm/s | – |
| CC[C@H]1C[C@@H](n2c(=O)nc(-c3cnn(C)c3)c3oc4cc(C#N)c(-c5cccnc5)cc4c32)CCO1 [Compound 1051] | 220 nM | 15.4 ×10⁻⁶ cm/s | – |
| CC[C@H]1C[C@@H](n2c(=O)nc(-c3ccc(OC)cn3)c3oc4ccc(-c5cn(C)cn5)nc4c32)CCO1 [Compound 1101] | 17 nM | 32 ×10⁻⁶ cm/s | – |
| CC[C@H]1C[C@@H](n2c(=O)nc(-c3cnn(C)c3)c3oc4cc(F)c(-c5cnc(C)o5)cc4c32)CCO1 [Compound 1044] | 22 nM | 12.4 ×10⁻⁶ cm/s | – |
